Source: patent US20220409617A1, “Drug Formulations and Methods of Treatment for Metabolic Disorders” (The Regents of the University of California, priority 2019, published 2022)

How the values were obtained:
[1] = system: hepatic lipid accumulation; experiment: Hepatic steatosis and lipidomic profiling of liver and quadriceps muscle; type: in vivo, mouse; settings: HFD-fed mice
Method: Lipids were extracted from liver and quadriceps tissue using a modified MTBE method (Matyash et al, 2008; Abbott et al, 2013). Briefly, 10 mg/ml of tissue was homogenized in ice-cold 150 mM ammonium acetate using a bead homogenizer (1.4 mm ceramic) kept below 4° C. using liquid nitrogen vapor (Precellys 24 homogenizer with Cryolys cooling unit, Bertin Technologies, Montigny-le-Bretonneux, France). From this, 20 μl of homogenized tissues were added to glass vials containing MTBE and methanol (3:1 v/v, with 0.01% BHT), alongside 10 μl of an internal standard solution containing 10 μM each: phosphatidylcholine (PC) 17:0/17:0, phosphatidylethanolamine (PE) 17:0/17:0, phosphatidylserine (PS) 17:0/17:0, phosphatidylglycerol (PG) 17:0/17:0, lysophosphatidylcholine (LPC) 17:0, lysophosphatidylethanolamine (LPE) 14:0, ceramide (Cer) d18:1/17:0, dihydrosphingomyelin d18:0/12:0, diacylglycerol (DAG) 17:0/17:0, D5-triacylglycerol (TAG) 48:0, and cholesteryl ester (CE) 22:1. Samples were allowed to rotate at 4° C. overnight prior to the addition of 1 volume of ice-cold 150 mM ammonium acetate. Samples were vortexed thoroughly prior to centrifugation (2000×g, 5 min) to enable phase separation. […]
Extracted lipids were analyzed by liquid chromatography-mass spectrometry (LC-MS) using a Dionex Ultimate 3000 LC pump and Q Exactive Plus mass spectrometer equipped with a heated electrospray ionization (HESI) source (Thermo Fisher Scientific). […] Data were acquired in full scan/data-dependent MS2 mode (full scan resolution 70,000 FWHM, max ion injection time 50 ms, scan range m/z 200-1500), with the 10 most abundant ions being subjected to collision-induced dissociation using an isolation window of 1.5 Da and a normalized stepped collision energy of 15/27 eV, with product ions detected at a resolution of 17,500. […]
Lipids were analyzed using MS-DIAL (Tsugawa et al, 2015). Lipids were detected in both positive and negative ionization modes using a minimum peak height of 1×10^4 cps, a MS1 tolerance of 5 ppm and MS2 tolerance of 10 ppm, and a minimum identification score of 50%. […]

[2] = system: leptin; experiment: Serum leptin ELISA in HFD-fed mice; type: in vivo, mouse
Method: Further assessment was performed to determine the level of leptin circulating in HFD-fed mice treated with sphingolipid-like compound 893. Mice were fed a HFD for 4 weeks and randomly distributed into two groups with the same mean weight. Mice were gavaged with water (n=7) or 120 mg/kg 893 (n=8) at ZT8.5. Blood was collected from the saphenous vein between ZT15-18 in pairs of treated vs. untreated animals and leptin levels were measured in serum using ELISA (CrystalChem, cat #90030).

CCCCCCCCc1ccc([C@H]2CCN[C@@H]2CO)cc1.Cl [compound 893]
Hepatic steatosis ([1]; 120 mg/kg): eliminated hepatic steatosis
Liver triglyceride and ceramide levels ([1]; treated for 4 weeks): restored normal triglyceride and ceramide levels in the liver
Muscle ceramide levels ([1]; treated for 4 weeks, quadriceps): ceramide levels trended lower in muscle
Leptin production by adipocytes ([2]; in vivo): reduced leptin production by adipocytes in vivo
Circulating leptin levels (serum) ([2]; mice on HFD 4 weeks, 120 mg/kg at ZT8.5, blood at ZT15-18): lowered levels of circulating leptin
